“Also recorded” adds a separate entry of the source. Peptide text beside a SMILES is read from it. * marks the point of attachment. Cbz = O=C(OCc1ccccc1)*; CH2F = FC*
Legend:
[1] = target: T1, 20S proteasome b5 subunit (Homo sapiens, UniProt P28074); test: Proteasomal activity assay, chymotrypsin-like (LLVY-AMC), WM cells; type: biochemical; settings: 10 nmol/l; WT and BR WM cells
T1 construct: Cells were lysed at 4×10^6 cells/ml in proteasomal activity assay buffer; endogenous in cells; host or cells: BCWM.1, MWCL-1, RPCI-WM1 and their BR subclones (lysates)
T1 sequence (P28074 60-263): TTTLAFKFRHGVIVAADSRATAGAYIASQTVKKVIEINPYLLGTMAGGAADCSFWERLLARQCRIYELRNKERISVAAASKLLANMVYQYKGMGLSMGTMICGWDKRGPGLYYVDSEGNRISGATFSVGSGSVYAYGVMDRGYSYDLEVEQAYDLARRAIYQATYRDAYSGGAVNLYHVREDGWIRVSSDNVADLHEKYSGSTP
Method: FIGS. 10A and 10B are a series of graphs plotting the effect of b-AP15 treatment on 20S proteasome, b5-subunit (chymotrypsin-like) catalytic activity in WT and BR WM cells.
Cells were lysed at 4×10^6 cells/ml in proteasomal activity assay buffer [assay buffer; 25 mmol/1 HEPES buffer, pH7.5 containing 0.5 mmol/1 EDTA, 0.05% Nonidet P-40, 0.01% sodium dodecyl sulfate (SDS)] and immediately used in the assay. Enzyme reactions were performed in 96-well plates with 100 μl of final volume containing […] fluorogenic peptide substrates. The substrates used were LLVY-AMC for chymotrypsin like activity, LLE-AMC for caspase-like activity and LRR-AMC for trypsin-like activity. Reactions were incubated at 37° C. for 1 hour and fluorescence was measured at 360/460 using a BioTek synergy HT plate reader (BioTek, Winooski, Vt.).

MWCL-1/BR = test: MTS viability assay, MWCL-1/BR; type: cell-based, human; settings: Homo sapiens; MTS assay, MWCL-1/BR
Method: (§1) Twenty thousand cells/200 μl in quadruplicates were incubated with serially diluted b-AP15 (1-1000 nmol/l) in 96-well plates at 37° C. for 72 hours. MTS (3-(4,5-dimethylthiazol-2-yl)-5-(3-carboxymethoxyphenyl)-2-(4-sulfophenyl)-2H-tetrazolium) reagent (Molecular Probes, Eugene, Oreg.) was added at 40 μl/well and the plates were further incubated at 37° C. for 3 hours and the developed color was read at 490 nm using a BioTek synergy HT plate reader against blanks with no cells.

MCL patients = settings: bortezomib-based therapies; cited from earlier work
RPCI-WM1 = test: MTS viability assay, RPCI-WM1; type: cell-based, human; settings: Homo sapiens, MTS assay
Method: as §1

[2] = system: BR human MM and WM cell lines; test: Growth insensitivity of BR cell lines vs WT counterparts; type: cell-based; settings: BR cell lines compared to respective WT counterparts
Text: (§2) To investigate the mechanism of induction of bortezomib resistance, preclinical models of acquired bortezomib resistance (BR) were developed using human MM and WM cell lines.

RPCI-WM1/BR = test: MTS viability assay, RPCI-WM1/BR; type: cell-based, human; settings: Homo sapiens, MTS assay
Method: as §1

BCWM.1 cell line = test: MTS viability assay, BCWM.1; type: cell-based, human
Method: (§3) FIGS. 4A-4D show the characterization of BR WM models, established by subjecting WM cancer cell lines (n=3) chronic drug exposure. […] FIG. 4C is a graph plotting relative fluorescence units in an assay to examine PSMB5 enzyme function by flow cytometry.
as §1

OPM2 BR derivative = test: MTS assay, OPM2 BR derivative; type: cell-based; settings: Homo sapiens, OPM-2
Text: (§4) FIGS. 1A-1C show the characterization of bortezomib-resistance (BR) models, established by subjecting plasma cell cancer cell lines (n=6) chronic drug exposure. FIG. 1A is a graph plotting the results of an MTS assay for an OPM2 cell line (representative model).
as §2

β5/PSMB5 = β5/PSMB5 (Homo sapiens, UniProt P28074); test: 26S proteasome activity, Suc-LLVY-AMC cleavage, WT and BR plasma cell cancer cells; type: biochemical; settings: in the presence of bortezomib
Method: FIGS. 3A-3C are a series of graphs showing that bortezomib resistance is associated with increased proteasomal enzymatic activity.
Studies were performed to investigate whether an increase in β1i and β5 proteins corresponded with increased protease activity. WT and BR cancer cells were incubated with β1i specific (Ac-PAL-AMC substrate) and β5 specific (Suc-LLVY-AMC substrate) fluorogenic peptides (condition details in FIG. 3 description above). β5 chymotryptic activity (primary target of bortezomib) was assessed first and found in BR cells.

BCWM.1/BR = test: MTS viability assay, BCWM.1/BR; type: cell-based, human
Method: as §3, §1

MWCL-1 cells = test: MTS viability assay, MWCL-1; type: cell-based, human; settings: Homo sapiens, MTS assay
Method: as §1

[3] = system: treatment naïve MM patients; settings: bortezomib-based therapies; cited from earlier work
OPM2 cell line (WT) = test: MTS assay, OPM2 WT; type: cell-based; settings: Homo sapiens, OPM-2
Text: as §4, §2

WT and BR WM cells = test: Mitochondrial outer membrane permeability (TMRM), WM cell lines; type: cell-based, human; settings: pre-treatment with pan-caspase inhibitor
Method: Cells were treated with different agents for 48 hours and assessed for MOMP using tetramethylrhodamine methyl ester [TMRM] (Life Technologies). TMRM was directly added to the cell cultures at 100 nmol/1 concentrations and incubated at 37° C. in the dark for 15 minutes. At the end of the incubation, cells were washed twice with cold PBS containing 2% FBS and analyzed. The cells were washed for fluorescence (FL2) and analyzed by BD Accuri, the C6 flow cytometer and its software. Data from at least 20,000 events per sample were collected and analyzed. TMRM-negative (%) cells were calculated to determine % MOMP.

[4] = system: bortezomib or carfilzomib-resistant MM and WM cell lines; test: VLX1570-sensitivity screen (Celltiter Glo viability assay); type: cell-based, human; settings: bortezomib/carfilzomib-resistant tumor cells
Text: FIG. 5 is a graph plotting sensitivity of bortezomib or carfilzomib-resistant tumor cells to drugs with a mechanism directed at targets upstream of the 20S proteasome. An inhibitor of the deubiquitinase (DUB) enzymes located in the 19S cap of the proteasome that are upstream of β5 and β1i, was used.

## CC(C)C[C@H](NC(=O)[C@H](CCc1ccccc1)NC(=O)CN1CCOCC1)C(=O)N[C@@H](Cc1ccccc1)C(=O)N[C@@H](CC(C)C)C(=O)[C@@]1(C)CO1 [carfilzomib]
[1]
  chymotrypsin-like activity (LLVY) of the b5 subunit: significantly diminished

## CC(C)C[C@H](NC(=O)[C@H](Cc1ccccc1)NC(=O)c1cnccn1)B(O)O [bortezomib]
MWCL-1/BR
  IC50: 65.2 nM
MCL patients
  response rate: about 75%
RPCI-WM1
  IC50: 27 nM
[2]
  increase in growth insensitivity, BR vs WT: > 100 fold
RPCI-WM1/BR
  IC50: 125 nM
BCWM.1 cell line; Homo sapiens, BCWM1, MTS assay
  IC50: 18 nM
BCWM.1 cell line; MTS assay
  IC50: 11.4 nM
OPM2 BR derivative
  IC50: > 50 nM
β5/PSMB5
  chymotryptic β5 activity: decreased; also recorded: inhibited the chymotryptic activity; also recorded: nearly abrogated
BCWM.1/BR; Homo sapiens, BCWM1, MTS assay
  IC50: > 1000 nM
BCWM.1/BR; MTS assay
  IC50: 720 nM
MWCL-1 cells
  IC50: 16.6 nM
[1]
  chymotrypsin-like activity (LLVY) of the b5 subunit: significantly diminished
[3]
  response rate: about 100%
OPM2 cell line (WT)
  IC50: 6.14 nM

## COC(=O)C[C@H](NC(=O)[C@H](C)NC(=O)[C@@H](NC(=O)OCc1ccccc1)C(C)C)C(=O)CF [z.VAD.fmk] (Cbz-Val-Ala-Asp(OMe)-CH2F)
WT and BR WM cells
  MOMP in b-AP15 co-treated WM cells: significantly reduced MOMP

## C=CC(=O)N1CC/C(=C\c2ccc(F)c([N+](=O)[O-])c2)C(=O)/C(=C/c2ccc(F)c([N+](=O)[O-])c2)C1 [VLX1570]
[4]
  cytotoxicity: comparable cytotoxicity

Reference: patent publication US20170128518A1, “METHODS AND MATERIALS FOR IDENTIFYING AND TREATING MAMMALS RESISTANT TO PROTEASOME INHIBITOR TREATMENTS” (Mayo Foundation for Medical Education and Research, priority 2014, published 2017)
